Test results taken from PubChem BioAssay (NCI).
Several values for one entry are separate records, joined by “and”; a condition that tells them apart may be missing. Equal values may be shown once.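 Five compound concentrations were applied to cells in 96-well plates for 48 hours; endpoints were derived by simple linear interpolation of the resulting dose-response curve. GI50 marks 50% less growth. TGI: total growth inhibition.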

Tests used:
Test in all cases: NCI-60 cell line screen, 48 h
[1] = system: SK-MEL-28 melanoma
[2] = system: HCT-116 colon
[3] = system: SNB-75 CNS
[4] = system: HOP-92 NSCLC
[5] = system: COLO 205 colon
[6] = system: TK-10 renal
[7] = system: MCF7 breast
[8] = system: NCI-H522 lung
[9] = system: UACC-62 melanoma
[10] = system: HCC-2998 colon

Row | Structure (SMILES) | GI50 [1] | TGI [1] | GI50 [2] | TGI [2] | GI50 [3] | TGI [3] | GI50 [4] | TGI [4] | GI50 [5] | TGI [5] | GI50 [6] | TGI [6] | GI50 [7] | TGI [7] | GI50 [8] | TGI [8] | GI50 [9] | TGI [9] | GI50 [10] | TGI [10]
1 | COc1cc2c3c(n(CCCCNC(=O)OC(C)(C)C)c(=O)c2cc1OC)-c1cc2c(cc1C3=O)OCO2 | > 100 µM | > 100 µM | > 100 µM | > 100 µM | 33.2 µM | > 100 µM | 60.3 µM | > 100 µM | > 100 µM | > 100 µM | > 100 µM | > 100 µM | 5.15 µM | > 100 µM | > 100 µM | > 100 µM | > 100 µM | > 100 µM | > 100 µM | > 100 µM
2 | CCCCC[C@H]1CC=C2C(=O)C=C[C@@H]2CC=CCCCC(=O)O[C@@H](CCCCC)CC=C2C(=O)C=C[C@@H]2CC=CCCCC(=O)O[C@@H](CCCCC)CC=C2C(=O)C=C[C@@H]2CC=CCCCC(=O)O1 | 0.311 µM | 1.74 µM | 0.221 µM | 0.906 µM | 4.8 µM | > 8.75 µM | 0.359 µM | 1.82 µM | 0.169 µM | 0.368 µM | 0.478 µM | 3.53 µM | 0.286 µM | 2.2 µM | 0.218 µM | 0.797 µM | 0.204 µM | 0.545 µM | 0.264 µM | 0.888 µM
3 | O=C(Nc1ccc2ncnc(Nc3ccc(Oc4cccc(F)c4)c(Cl)c3)c2c1)c1ccc(CN2CCOCC2)cc1 | 2.62 µM | 9.38 µM | 2.55 µM | 8.94 µM | 1.97 µM | 9.22 µM | 2.38 µM | 15.4 µM | 2.56 µM | 8.34 µM | 3.08 µM | 13.5 µM | 1.83 µM | 5.64 µM | 0.654 µM | 4.01 µM | 1.78 µM | 3.43 µM | 3.14 µM | 18.6 µM
4 | CN(C)C(=S)/N=c1\ssc(=S)n1Cc1cccs1 |  | > 100 µM |  | > 69.6 µM |  | 15.2 µM |  | > 89.1 µM |  | 6.41 µM |  | > 81.6 µM |  | > 30.4 µM |  | 9.6 µM |  | > 56.7 µM |  | > 100 µM
5 | COC1CC(C)C(OC)c2cc(O)cc(c2O)NC(=O)/C(C)=C/C=C\C(C)C(OC(N)=O)/C(C)=C\C(C)C1OC (stereo not given) | 0.291 µM | 6.89 µM and 9.62 µM | 0.0642 µM and 0.571 µM | 8.1 µM and 9.01 µM | 0.245 µM | 18.2 µM and 3.42 µM | 0.234 µM | 12.1 µM and 2.79 µM | 0.0414 µM and 0.0785 µM | 7.12 µM and 2.8 µM | 2.92 µM | 21.1 µM and 10.6 µM | 0.0482 µM | 10.5 µM | 0.0575 µM and 0.0989 µM | 0.683 µM and 0.913 µM | 0.162 µM | 8.89 µM and 5.83 µM | 0.318 µM | 9.78 µM and 11.3 µM
6 | CCN(CC)CCC(=O)OC1C(C)=CC(C)C(=O)CC(C(C)CC2CCC(O)C(OC)C2)OC(=O)C2CCCCN2C(=O)C(=O)[C@@]2(O)OC(CCC2C)CC(OC)\C(C)=C/C=C/C=C/C(C)CC(C)C(=O)C1OC (stereo not given in full) |  | 19.3 µM |  | 20.1 µM |  | 0.971 µM |  | 21.9 µM |  | 24.6 µM |  | 23.2 µM |  | 16.1 µM |  | 26.5 µM |  | 19.8 µM |  | 21.8 µM
